Blank lines part the entries; values can stand above or below the compound they belong to.
Experiments:
MIAPaCa-2 = assay: Antiproliferation MTS assay, pancreatic cancer cells; assay type: cell-based; details: Homo sapiens
HupT3 = assay: as above; assay type: cell-based; details: Homo sapiens, HuP-T3, as reported in Gaisina et al. (2009) J. Med. Chem. 52(7), 1853-1863
BXPC-3 = assay: as above; assay type: cell-based; details: Homo sapiens, BXPC-3, as reported in Gaisina et al. (2009) J. Med. Chem. 52(7), 1853-1863
[1] = tested on: pancreatic cancer cell lines; details: BXPC3, HupT3 and MiaPaCa-2; Ougolkov et al. (2007) Blood 110: 735-742; cited from earlier work
[2] = target: T1, recombinant human His6-GSK-3β (Homo sapiens, UniProt P49841); assay: GSK-3β kinase assay, [γ32P] transfer to primed glycogen synthase peptide; assay type: biochemical; details: 10 μM ATP; 10 μM pGSM peptide; 30 minutes at 30° C.; read-out: IC50 (nM), GSK-3β inhibition;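 further: phosphate incorporation quantified by liquid scintillation counting of the filters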
T1 construct: His6; purchased EMD Biosciences

GSK-3β = GSK-3β activity in cells by glycogen synthase phosphorylation, Western immunoblotting; assay type: cell-based
XIAP = assay: NFκB-mediated expression of XIAP in pancreatic cancer cells; assay type: cell-based
PKCβ2 = PKCβ2 (Homo sapiens, UniProt P05771); assay: Inhibition of various kinases (% inhibition); assay type: biochemical
Source text: (§1) Additional examples of selectivity are illustrated in Table 4.

GSK3α = GSK3α (Homo sapiens, UniProt P49840); assay: Inhibition of various kinases (% inhibition); assay type: biochemical
Source text: as §1

PDK1 [3] = target: T2, PDK1 (Homo sapiens, UniProt O15530); assay: Inhibition of various kinases (% inhibition); assay type: biochemical
T2 sequence (O15530 1-556): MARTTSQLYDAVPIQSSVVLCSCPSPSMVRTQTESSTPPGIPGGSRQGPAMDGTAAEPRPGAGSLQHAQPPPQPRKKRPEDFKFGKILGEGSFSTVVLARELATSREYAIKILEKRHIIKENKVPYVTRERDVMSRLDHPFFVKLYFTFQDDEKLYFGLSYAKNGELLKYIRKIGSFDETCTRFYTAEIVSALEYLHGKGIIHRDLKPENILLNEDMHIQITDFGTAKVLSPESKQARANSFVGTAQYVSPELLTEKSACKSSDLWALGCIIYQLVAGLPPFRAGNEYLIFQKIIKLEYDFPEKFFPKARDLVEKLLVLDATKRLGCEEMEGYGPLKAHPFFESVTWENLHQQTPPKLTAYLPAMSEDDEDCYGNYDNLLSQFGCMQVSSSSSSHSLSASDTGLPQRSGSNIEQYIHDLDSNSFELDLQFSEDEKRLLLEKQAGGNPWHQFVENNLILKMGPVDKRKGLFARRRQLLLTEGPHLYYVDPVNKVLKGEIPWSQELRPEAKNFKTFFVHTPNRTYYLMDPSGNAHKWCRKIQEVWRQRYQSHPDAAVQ
Source text: as §1

CDK2 = CDK2 (Homo sapiens, UniProt P24941); assay: Inhibition of various kinases (% inhibition); assay type: biochemical
Source text: as §1

CDK-4/cyclinD1 = CDK-4/cyclinD1 (Homo sapiens, UniProt P11802); assay: CDK panel (Reaction Biology); assay type: biochemical; details: tested at Reaction Biology, Inc.
CDK-2/cyclinA = CDK-2/cyclinA (Homo sapiens, UniProt P24941); assay: CDK panel (Reaction Biology); assay type: biochemical; details: tested at Reaction Biology, Inc.
CDK-6/cyclinD3 = CDK-6/cyclinD3 (Homo sapiens, UniProt Q00534); assay: CDK panel (Reaction Biology); assay type: biochemical; details: tested at Reaction Biology, Inc.
CDK-2/cyclinE = CDK-2/cyclinE (Homo sapiens, UniProt P24941); assay: CDK-2/CyclinE inhibition (Reaction Biology); assay type: biochemical; details: tested at Reaction Biology, Inc.
CDK-9/cyclinT1 = CDK-9/cyclinT1 (Homo sapiens, UniProt P50750); assay: CDK panel (Reaction Biology); assay type: biochemical; details: tested at Reaction Biology, Inc.
CDK-3/cyclinE = CDK-3/cyclinE (Homo sapiens, UniProt Q00526); details: read-out: IC50 (μM) CDK-3/cyclinE; tested at Reaction Biology, Inc.
CDK-1/cyclinB = CDK-1/cyclinB (Homo sapiens, UniProt P06493); assay: CDK panel (Reaction Biology); assay type: biochemical; details: tested at Reaction Biology, Inc.
OVCA432 = assay: Antiproliferation assay, ovarian cancer cells; assay type: cell-based; details: ovarian cancer cell proliferation
Description: (§2) The pancreatic cancer cell lines BxPc-3, HupT3, MiaPaCa-2, Panc 04.03, and SU86.86 were obtained from ATCC (Rockville, Md.) and were grown in medium (DMEM or RPMI) containing 10% fetal calf serum and L-glutamine. Pancreatic cancer cells were plated out in duplicate into 6-wells of a 96-well microtiter plate at 2.5−4×10^3 cells per well. Four-hours post plating, individual wells were treated with diluent (DMSO) or varying concentrations of commercial compounds, AR-A014418 and SB216763, or the indicated GSK inhibitors of this invention from a concentration of 1 nM to 50 microM. […] The IC50s were calculated using XLfit (IDBS Limited, Guildford, UK).
(§3) Similar antiproliferation assays were performed using ovarian cancer cells. Compound 40 is of particular interest for inhibition of ovarian cancer cell proliferation.

SKOV3 = assay: Antiproliferation assay, ovarian cancer cells; assay type: cell-based; details: Homo sapiens, SK-OV-3; ovarian cancer cell proliferation
Description: as §2, §3

[4] = tested on: pancreatic cancer cell lines; assay: Proliferation and survival of pancreatic cancer cells (overall statements); assay type: cell-based
Description: as §2

IGF-1R = IGF-1R (Homo sapiens, UniProt P08069); assay: Kinase panel (Novartis); assay type: biochemical
FAK = FAK (Homo sapiens, UniProt Q05397); assay: Kinase panel (Novartis); assay type: biochemical
HER-1 = HER-1 (Homo sapiens, UniProt P00533); assay: Kinase panel (Novartis); assay type: biochemical
EphB4 = EphB4 (Homo sapiens, UniProt P54760); assay: Kinase panel (Novartis); assay type: biochemical
Axl = Axl (Homo sapiens, UniProt P30530); assay: Kinase panel (Novartis); assay type: biochemical
CDK2/A = CDK2/A (Homo sapiens, UniProt P24941); assay: Kinase panel (Novartis); assay type: biochemical
Flt-3 = Flt-3 (Homo sapiens, UniProt P36888); assay: Kinase panel (Novartis); assay type: biochemical
c-src = c-src (Homo sapiens, UniProt P12931); assay: Kinase panel (Novartis); assay type: biochemical
KDR = KDR (Homo sapiens, UniProt P35968); assay: Kinase panel (Novartis); assay type: biochemical
c-Abl = c-Abl (Homo sapiens, UniProt P00519); assay: Kinase panel (Novartis); assay type: biochemical
b-Raf-V599E = b-Raf-V599E (Homo sapiens, UniProt P15056, V600E); assay: Kinase panel (Novartis); assay type: biochemical
FGFR-3-K650E = FGFR-3-K650E (Homo sapiens, UniProt P22607, K650E); assay: Kinase panel (Novartis); assay type: biochemical
c-Abl-T3151 = c-Abl-T3151 (Homo sapiens, UniProt P00519, T315I); assay: Kinase panel (Novartis); assay type: biochemical
JAK-2 = JAK-2 (Homo sapiens, UniProt O60674); assay: Kinase panel (Novartis); assay type: biochemical
c-Met = c-Met (Homo sapiens, UniProt P08581); assay: Kinase panel (Novartis); assay type: biochemical
Tek = Tek (Homo sapiens, UniProt Q02763); assay: Kinase panel (Novartis); assay type: biochemical
Ret = Ret (Homo sapiens, UniProt P07949); assay: Kinase panel (Novartis); assay type: biochemical
PDK1 [5] = target: T2, PDK1; assay: Kinase panel (Novartis); assay type: biochemical
CDK-5/P35 = CDK-5/P35 (Homo sapiens, UniProt Q00535); assay: CDK panel (Reaction Biology); assay type: biochemical; details: tested at Reaction Biology, Inc.
CDK-5/P25 = CDK-5/P25 (Homo sapiens, UniProt Q00535); assay: CDK panel (Reaction Biology); assay type: biochemical; details: tested at Reaction Biology, Inc.
mice = details: Hanania et al. 2005, Brody et al. 2003; cited from earlier work
C57BL/6J mice = details: Hanania et al. 2005; cited from earlier work
[6] = MIA PaCa-2, as reported in Gaisina et al. (2009) J. Med. Chem. 52(7), 1853-1863

T1 sequence (P49841 whole entry): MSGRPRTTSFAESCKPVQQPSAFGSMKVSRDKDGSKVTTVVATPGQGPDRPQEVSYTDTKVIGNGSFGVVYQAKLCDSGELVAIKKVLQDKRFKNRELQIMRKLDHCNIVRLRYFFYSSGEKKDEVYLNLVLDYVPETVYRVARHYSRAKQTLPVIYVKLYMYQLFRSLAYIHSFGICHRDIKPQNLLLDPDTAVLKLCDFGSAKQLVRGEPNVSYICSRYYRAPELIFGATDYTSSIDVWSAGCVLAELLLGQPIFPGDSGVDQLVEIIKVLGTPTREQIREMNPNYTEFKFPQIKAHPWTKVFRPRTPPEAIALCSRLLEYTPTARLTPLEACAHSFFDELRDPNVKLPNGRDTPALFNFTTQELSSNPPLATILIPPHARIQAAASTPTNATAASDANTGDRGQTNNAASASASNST
Chain of CDK-6/cyclinD3 (Q00534 whole entry, species assumed): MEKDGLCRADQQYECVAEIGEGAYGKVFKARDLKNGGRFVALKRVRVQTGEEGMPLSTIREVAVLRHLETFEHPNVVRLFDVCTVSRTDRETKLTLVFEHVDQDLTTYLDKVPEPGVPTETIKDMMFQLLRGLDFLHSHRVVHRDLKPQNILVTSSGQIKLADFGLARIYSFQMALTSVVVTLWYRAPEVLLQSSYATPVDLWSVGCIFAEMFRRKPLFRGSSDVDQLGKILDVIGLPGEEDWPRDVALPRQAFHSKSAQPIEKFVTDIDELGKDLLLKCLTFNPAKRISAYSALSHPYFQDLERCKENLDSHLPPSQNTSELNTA
Chain of CDK-6/cyclinD3 (P30281 whole entry partner, species assumed): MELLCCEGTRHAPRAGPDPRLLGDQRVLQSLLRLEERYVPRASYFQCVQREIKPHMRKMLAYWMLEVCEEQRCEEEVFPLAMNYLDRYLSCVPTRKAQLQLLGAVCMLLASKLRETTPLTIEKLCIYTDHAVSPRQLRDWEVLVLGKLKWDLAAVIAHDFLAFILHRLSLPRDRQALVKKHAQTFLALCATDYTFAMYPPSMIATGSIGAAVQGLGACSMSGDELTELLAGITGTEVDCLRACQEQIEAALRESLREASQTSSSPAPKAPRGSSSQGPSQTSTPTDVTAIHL
Chain of GSK3α (P49840 whole entry, species assumed): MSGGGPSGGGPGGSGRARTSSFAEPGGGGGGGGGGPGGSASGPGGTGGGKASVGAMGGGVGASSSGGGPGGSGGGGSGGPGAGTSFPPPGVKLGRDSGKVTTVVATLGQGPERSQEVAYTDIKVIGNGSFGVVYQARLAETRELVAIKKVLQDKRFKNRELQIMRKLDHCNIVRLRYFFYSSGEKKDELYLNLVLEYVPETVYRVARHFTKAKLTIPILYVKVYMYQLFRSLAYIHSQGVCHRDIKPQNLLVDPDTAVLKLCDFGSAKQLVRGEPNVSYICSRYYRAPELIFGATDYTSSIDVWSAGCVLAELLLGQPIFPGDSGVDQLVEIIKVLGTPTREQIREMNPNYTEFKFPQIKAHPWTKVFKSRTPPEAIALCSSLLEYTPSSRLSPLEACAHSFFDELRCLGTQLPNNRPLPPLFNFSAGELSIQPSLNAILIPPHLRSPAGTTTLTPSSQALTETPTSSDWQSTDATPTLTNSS
Chain of CDK-1/cyclinB (P06493 whole entry, species assumed): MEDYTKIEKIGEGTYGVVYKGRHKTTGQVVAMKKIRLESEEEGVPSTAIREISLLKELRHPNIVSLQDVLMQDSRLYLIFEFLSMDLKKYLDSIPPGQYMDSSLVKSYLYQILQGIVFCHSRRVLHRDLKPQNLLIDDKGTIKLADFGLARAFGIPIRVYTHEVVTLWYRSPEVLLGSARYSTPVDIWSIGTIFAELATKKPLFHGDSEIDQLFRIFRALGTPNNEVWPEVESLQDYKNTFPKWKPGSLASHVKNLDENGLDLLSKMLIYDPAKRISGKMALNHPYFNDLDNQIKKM
Chain of CDK-1/cyclinB (P14635 whole entry partner, species assumed): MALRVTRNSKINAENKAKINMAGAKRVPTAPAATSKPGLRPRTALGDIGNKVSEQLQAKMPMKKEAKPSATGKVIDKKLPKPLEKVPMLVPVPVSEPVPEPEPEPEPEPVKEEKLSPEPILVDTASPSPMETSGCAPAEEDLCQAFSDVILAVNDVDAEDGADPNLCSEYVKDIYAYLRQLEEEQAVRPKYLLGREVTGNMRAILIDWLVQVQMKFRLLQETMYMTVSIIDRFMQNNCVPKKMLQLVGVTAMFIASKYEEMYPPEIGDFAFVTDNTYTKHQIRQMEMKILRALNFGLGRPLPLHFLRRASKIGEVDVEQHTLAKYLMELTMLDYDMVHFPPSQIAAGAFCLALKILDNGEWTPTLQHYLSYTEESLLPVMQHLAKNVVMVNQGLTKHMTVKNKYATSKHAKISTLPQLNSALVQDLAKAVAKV
Chain of PKCβ2 (P05771 1-673 isoform P05771-2): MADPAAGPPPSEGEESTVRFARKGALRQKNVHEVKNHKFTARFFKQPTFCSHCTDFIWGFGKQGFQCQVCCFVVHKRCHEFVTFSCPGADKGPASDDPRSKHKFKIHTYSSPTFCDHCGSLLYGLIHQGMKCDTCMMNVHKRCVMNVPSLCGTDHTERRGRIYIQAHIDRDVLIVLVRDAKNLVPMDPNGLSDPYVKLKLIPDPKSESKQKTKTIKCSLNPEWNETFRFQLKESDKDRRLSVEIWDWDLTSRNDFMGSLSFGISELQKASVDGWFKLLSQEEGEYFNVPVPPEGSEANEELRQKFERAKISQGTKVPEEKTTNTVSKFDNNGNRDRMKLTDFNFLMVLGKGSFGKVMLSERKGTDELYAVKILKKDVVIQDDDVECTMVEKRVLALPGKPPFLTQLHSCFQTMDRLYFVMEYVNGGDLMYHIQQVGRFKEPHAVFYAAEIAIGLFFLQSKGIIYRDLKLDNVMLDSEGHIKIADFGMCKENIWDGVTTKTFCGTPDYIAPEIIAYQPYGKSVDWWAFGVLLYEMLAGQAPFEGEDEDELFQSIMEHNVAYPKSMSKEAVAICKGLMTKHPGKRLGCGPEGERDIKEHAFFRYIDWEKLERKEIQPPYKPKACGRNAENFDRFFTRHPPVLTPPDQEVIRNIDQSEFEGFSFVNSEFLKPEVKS
Chain of CDK-4/cyclinD1 (P11802 whole entry, species assumed): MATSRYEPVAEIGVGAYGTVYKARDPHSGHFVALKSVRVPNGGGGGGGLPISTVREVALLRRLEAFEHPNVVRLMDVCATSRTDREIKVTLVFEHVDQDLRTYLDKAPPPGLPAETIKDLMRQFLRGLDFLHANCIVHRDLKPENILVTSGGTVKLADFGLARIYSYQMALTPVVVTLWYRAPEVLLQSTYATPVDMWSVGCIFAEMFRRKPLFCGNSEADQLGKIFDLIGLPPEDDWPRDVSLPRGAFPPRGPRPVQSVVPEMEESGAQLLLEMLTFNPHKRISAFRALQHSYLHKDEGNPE
Chain of CDK-4/cyclinD1 (P24385 whole entry partner, species assumed): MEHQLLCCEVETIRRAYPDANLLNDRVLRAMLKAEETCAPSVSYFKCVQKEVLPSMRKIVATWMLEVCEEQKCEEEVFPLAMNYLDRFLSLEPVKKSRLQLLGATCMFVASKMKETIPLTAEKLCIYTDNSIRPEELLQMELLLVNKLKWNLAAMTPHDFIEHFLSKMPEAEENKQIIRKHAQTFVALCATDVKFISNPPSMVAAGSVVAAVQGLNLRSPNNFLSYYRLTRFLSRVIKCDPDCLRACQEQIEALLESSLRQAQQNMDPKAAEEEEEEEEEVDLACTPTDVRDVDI
Chain of CDK-9/cyclinT1 (P50750 whole entry, species assumed): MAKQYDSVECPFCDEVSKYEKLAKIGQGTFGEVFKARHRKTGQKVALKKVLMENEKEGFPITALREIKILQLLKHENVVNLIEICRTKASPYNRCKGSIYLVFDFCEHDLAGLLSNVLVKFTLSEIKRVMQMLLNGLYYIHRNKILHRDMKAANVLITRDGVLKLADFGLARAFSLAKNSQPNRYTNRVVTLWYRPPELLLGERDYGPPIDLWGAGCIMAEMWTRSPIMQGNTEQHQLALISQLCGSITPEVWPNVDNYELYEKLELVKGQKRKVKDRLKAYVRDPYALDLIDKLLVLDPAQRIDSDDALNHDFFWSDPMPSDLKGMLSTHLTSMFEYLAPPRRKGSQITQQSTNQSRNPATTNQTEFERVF
Chain of CDK-9/cyclinT1 (O60563 whole entry partner, species assumed): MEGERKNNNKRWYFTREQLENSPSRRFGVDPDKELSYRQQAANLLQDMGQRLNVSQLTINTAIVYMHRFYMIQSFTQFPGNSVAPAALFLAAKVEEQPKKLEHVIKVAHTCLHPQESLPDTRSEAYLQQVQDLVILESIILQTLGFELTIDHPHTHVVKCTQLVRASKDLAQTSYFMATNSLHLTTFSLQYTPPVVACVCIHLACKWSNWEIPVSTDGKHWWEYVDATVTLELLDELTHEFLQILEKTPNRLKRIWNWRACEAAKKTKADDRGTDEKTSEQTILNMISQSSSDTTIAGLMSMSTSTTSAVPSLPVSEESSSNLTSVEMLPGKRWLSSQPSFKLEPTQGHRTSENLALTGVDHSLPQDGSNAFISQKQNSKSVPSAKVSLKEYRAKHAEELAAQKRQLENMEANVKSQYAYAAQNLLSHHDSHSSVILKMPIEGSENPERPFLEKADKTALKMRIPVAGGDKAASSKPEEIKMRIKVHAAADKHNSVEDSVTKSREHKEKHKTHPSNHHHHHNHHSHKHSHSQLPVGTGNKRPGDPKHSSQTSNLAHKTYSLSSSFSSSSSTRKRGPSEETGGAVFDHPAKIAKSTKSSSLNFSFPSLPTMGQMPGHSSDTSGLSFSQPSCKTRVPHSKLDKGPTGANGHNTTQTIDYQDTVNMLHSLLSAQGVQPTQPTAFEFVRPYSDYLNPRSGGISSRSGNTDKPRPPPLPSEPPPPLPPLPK

IC50 (MIAPaCa-2; [6]): 29 ± 1.7 µM | IC50 (MIAPaCa-2; MIA PaCa-2, 72 hrs, MTS): 25 µM | IC50 (HupT3): 22 ± 2.1 µM | IC50 (BXPC-3): 14 ± 0.6 µM
SMILES: COc1ccc(CNC(=O)Nc2ncc([N+](=O)[O-])s2)cc1 [AR-A014418, reference compound]
Pancreatic cancer cell proliferation, reference compounds [1]: significant decrease in pancreatic cancer cell proliferation

SMILES: COc1cccc2c(C3=C(c4cn(C)c5cc(I)c(F)cc45)C(=O)NC3=O)coc12 [Compound 10, 3-(5-Fluoro-6-iodo-1-methyl-1H-indol-3-yl)-4-(7-methoxy-benzofuran-3-yl)-pyrrole-2,5-dione]
IC50 [2]: 247 ± 28 nM | GSK-3β activity in pancreatic cancer cells (phosphorylation of glycogen synthase) (GSK-3β): effectively inhibited GSK-3β activity | NFκB-mediated expression of XIAP (XIAP): pronounced decrease in NFκB-mediated expression of XIAP | inhibition at 1 µM (PKCβ2; 1 μM): 2% | inhibition at 10 µM (PKCβ2; 10 μM): 15% | inhibition at 1 µM (GSK3α; 1 μM): 60% | inhibition at 10 µM (GSK3α; 10 μM): 95% | inhibition at 1 µM (PDK1 [3]; 1 μM): -1% | inhibition at 10 µM (PDK1 [3]; 10 μM): 6% | inhibition at 1 µM (CDK2; 1 μM): 9% | inhibition at 10 µM (CDK2; 10 μM): 35%

SMILES: Cn1cc(C2=C(c3coc4cc(CO)ccc34)C(=O)NC2=O)c2cc(F)c(Cl)cc21 [Compound 13, 3-(6-Chloro-5-fluoro-1-methyl-1H-indol-3-yl)-4-(6-hydroxymethyl-benzofuran-3-yl)-pyrrole-2,5-dione]
IC50 (CDK-4/cyclinD1): 18.3 µM | IC50 (CDK-2/cyclinA): 10.6 µM | IC50 (CDK-6/cyclinD3): 11.6 µM | IC50 (CDK-2/cyclinE): 11700 nM | IC50 (CDK-9/cyclinT1): 5.4 µM | IC50 [2]: 0.95 ± 0.19 nM | IC50 (CDK-3/cyclinE): 25.1 µM | IC50 (CDK-1/cyclinB): 13.4 µM

SMILES: Cn1cc(C2=C(c3coc4ccc(F)cc34)C(=O)NC2=O)c2cc3c(cc21)OCO3 [Compound 40, 3-(5-Fluoro-benzofuran-3-yl)-4-(5-methyl-5H-[1,3]dioxolo[4,5-f]indol-7-yl)-pyrrole-2,5-dione]
IC50 [2]: 708 ± 156 nM | GSK-3β activity in pancreatic cancer cells (phosphorylation of glycogen synthase) (GSK-3β): effectively inhibited GSK-3β activity | NFκB-mediated expression of XIAP (XIAP): pronounced decrease in NFκB-mediated expression of XIAP | IC50 (OVCA432): 11.2 µM | IC50 (SKOV3): 10.5 µM

IC50 (MIAPaCa-2; MIA PaCa-2, 72 hrs, MTS): > 50 µM | IC50 [2]: 440 ± 22 nM
SMILES: COc1cc2c(C3=C(c4coc5ccccc45)C(=O)NC3=O)cn(C)c2cc1Cl [Compound 42, 3-Benzofuran-3-yl-4-(6-chloro-5-methoxy-1-methyl-1H-indol-3-yl)-pyrrole-2,5-dione]
Proliferation and survival of pancreatic cancer cells [4]: did not affect GSK-3β activity, proliferation or survival | GSK-3β activity in pancreatic cancer cells (phosphorylation of glycogen synthase) (GSK-3β): did not affect GSK-3β activity

IC50 (IGF-1R): > 10 µM | IC50 (FAK): > 10 µM | IC50 (HER-1): 6.3 µM | IC50 (EphB4): > 10 µM | IC50 (Axl): > 10 µM | IC50 (CDK2/A): > 10 µM | IC50 (Flt-3): > 10 µM | IC50 (c-src): 4.5 µM | IC50 (KDR): 2.2 µM | IC50 (c-Abl): > 10 µM | IC50 [2]: 15 ± 3 nM | IC50 (b-Raf-V599E): > 10 µM | IC50 (FGFR-3-K650E): 7 µM | IC50 (c-Abl-T3151): > 10 µM | IC50 (JAK-2): > 10 µM | IC50 (c-Met): > 10 µM | IC50 (Tek): > 10 µM | IC50 (Ret): 5 µM | IC50 (PDK1 [5]): 0.73 µM
SMILES: Cn1cc(C2=C(c3coc4ccccc34)C(=O)NC2=O)c2ccc(O)cc21 [Compound 45, 3-Benzofuran-3-yl-4-(6-hydroxy-1-methyl-1H-indol-3-yl)-pyrrole-2,5-dione]

SMILES: COCc1cccc2c(C3=C(c4coc5ccccc45)C(=O)NC3=O)cn(C)c12 [Compound 52, 3-Benzofuran-3-yl-4-(7-methoxymethyl-1-methyl-1H-indol-3-yl)-pyrrole-2,5-dione]
IC50 (CDK-4/cyclinD1): 8.62 µM | IC50 (CDK-5/P35): 12.7 µM | IC50 (CDK-2/cyclinA): 4.09 µM | IC50 (CDK-6/cyclinD3): 8.33 µM | IC50 (CDK-2/cyclinE): 3880 nM | IC50 (CDK-9/cyclinT1): 16 µM | IC50 (CDK-5/P25): 12.9 µM | IC50 [2]: 0.23 ± 0.04 nM | IC50 (CDK-3/cyclinE): 17.7 µM | IC50 (CDK-1/cyclinB): 8.53 µM

IC50 (MIAPaCa-2; [6]): 25 ± 0.9 µM | IC50 (MIAPaCa-2; MIA PaCa-2, 72 hrs, MTS): 25 µM
SMILES: Cn1cc(C2=C(c3ccc(Cl)cc3Cl)C(=O)NC2=O)c2ccccc21 [SB216763, reference compound]
Pancreatic cancer cell proliferation, reference compounds [1]: significant decrease in pancreatic cancer cell proliferation

SMILES: Nc1nnc(-c2cccc(Cl)c2Cl)c(N)n1 [lamotrigine]
Sensorimotor gating (prepulse inhibition) (mice): improve sensorimotor gating | Block of CDP + amphetamine hyperactivity by mood stabilizers (C57BL/6J mice): blocked

SMILES: CCCC(CCC)C(=O)O [valporate]
Sensorimotor gating (prepulse inhibition) (mice): improve sensorimotor gating
